Columns and labels:
HeLa S3 cells = assay: Growth Inhibition Test on HeLa S3 Cells; type: cell-based; conditions: Homo sapiens, 1 hour exposure, then 72 hours incubation, Neutral Red, 550 nm
Description: Growth Inhibition Test on HeLa S3 Cells
HeLa S3 cells were suspended in a MEM medium containing 10% fetal calf serum and 2 mM glutamine at a concentration of 3×10^4 cells/ml, and 0.1 ml of the cell suspension was put into each well of a 96-well microtiter plate.
After culturing at 37° C. overnight in a carbon dioxide gas incubator, 0.05 ml of a test sample appropriately diluted with the medium was added to each well. The cells were further cultured for one hour in the carbon dioxide gas incubator and the culture supernatant was removed. The residue was washed once with a phosphate buffer saline [PBS(-)] and 0.1 ml of a fresh medium was added to each well, and the cells were further incubated at 37° C. for 72 hours in the carbon dioxide gas incubator. After removal of the supernatant, 0.1 ml of a culture medium containing 0.02% Neutral Red was added to each well, and the cells were further incubated at 37° C. for one hour in the carbon dioxide gas incubator to stain the cells. After removal of the culture supernatant, each well was washed once with a physiological saline, and the dye was extracted with 0.001 N HCl/30% methanol. Absorbance of the extract at 550 nm was measured with a microplate reader. The cell growth inhibition percentage was calculated according to the following formula from the absorbance of the extract of the cells treated with the test compound in various concentrations and that of intact cells. [formula]
From the cell growth inhibition percentage thus obtained, the concentration of the test compound which inhibits cell growth by 50% (IC50) was determined.

Sarcoma 180 Solid Tumor = assay: Anti-tumor Activity to Sarcoma 180 Solid Tumor; type: in vivo; conditions: Mus musculus, Sarcoma-180, iv, 168 h; dose of showing T/C=0.5 (tumor volume), male ddY mice, single i.v. 24 hours after s.c. implantation, measured at 7 days
Description: Anti-tumor Activity to Sarcoma 180 Solid Tumor
5×10^6 Sarcoma 180 cells were abdominally implanted into a ddY mouse and the cells were collected from the ascites of the mouse 7 days after the implantation. The cells were washed once with a sterilized physiological saline solution and then suspended in a sterilized physiological saline solution to prepare a cell suspension of 5×10^7 cells/ml. 0.1 ml of the cell suspension was subcutaneously implated into the right axillary space of each of male ddY mice weighing 20±2 g.
A test compound was dissolved in a physiological saline solution or a polyoxyethylene sorbitan monolaurate-containing physiological saline solution, and 0.1 to 0.2 ml of the solution was intravenously injected to five mice as one group 24 hours after the implatation of the tumor cells.
The anti-tumor activity of the test compound was determined by measuring the major diameter (a) and the minor diameter (b) of the tumor 7 days after the implantation of tumor cells, and the value of (a×b^2/ 2), which corresponds to the volume of the tumor, was calculated. The intended anti-tumor activity is represented by a ratio of T/C, in which C indicates the tumor volume of mice of the control group to which a physiological saline solution instead of the test compound was administered and T indicates the tumor volume of mice of the test group to which the test compound was administered. T/C at each dose given was plotted in a graph in which T/C is shown by an ordinary scale on the vertical axis and a dose is shown by a logarithmic scale on the horizontal axis. The relation between the dose and T/C was determined to be a straight line by the least-squares method. From the regression formula of the straight line thus obtained, the dose of showing T/C=0.5 is calculated to give ED50.

[1] = Acute Toxicity (single intravenous injection); conditions: mouse, in vivo, ddY mice, single i.v., 14 days observation, Behrens Kaerber's method
Description: A test compound was intravenously injected once to five ddY mice as one group. […] LD50 was calculated from the death rate of each group according to the Behrens Kaerber's method.

Row | SMILES | IC50 (HeLa S3 cells) [µM] | ED50 (Sarcoma 180 Solid Tumor) [mg/kg] | LD50 at 336 h [1] [mg/kg]
1 | CO[C@@]12[C@H](COC(N)=O)C3=C(C(=O)C(CSc4ccccn4)=C(N)C3=O)N1C[C@@H]1N[C@@H]12 [Compound 1, 6-Demethyl-6-[(2-pyridylthio)methyl]mitomycin C] | 1.8 |  | 
2 | CO[C@@]12[C@H](COC(N)=O)C3=C(C(=O)C(CSc4ncccc4O)=C(N)C3=O)N1C[C@@H]1N[C@@H]12 [Compound 2, 6-Demethyl-6-[[(3-hydroxypyridin-2-yl)thio]methyl]mitomycin C] | 0.19 | 3.7 | 15
3 | CO[C@@]12[C@H](COC(N)=O)C3=C(C(=O)C(CSc4ncccn4)=C(N)C3=O)N1C[C@@H]1N[C@@H]12 [Compound 3, 6-Demethyl-6-[(2-pyrimidinylthio)methyl]mitomycin C] | 0.95 | 8.9 | 26
4 | CO[C@@]12[C@H](COC(N)=O)C3=C(C(=O)C(CSc4nc(C)cc(C)n4)=C(N)C3=O)N1C[C@@H]1N[C@@H]12 [Compound 4, 6-Demethyl-6-[[(4,6-dimethylpyrimidin-2-yl)thio]methyl]mitomycin C] | 1.1 |  | 
5 | CO[C@@]12[C@H](COC(N)=O)C3=C(C(=O)C(CSC4=NCCS4)=C(N)C3=O)N1C[C@@H]1N[C@@H]12 [Compound 11, 6-Demethyl-6-[(2-thiazolinylthio)methyl]mitomycin C] | 0.82 | 5.9 | 9.4
6 | CO[C@@]12[C@H](COC(N)=O)C3=C(C(=O)C(CSc4nccs4)=C(N)C3=O)N1C[C@@H]1N[C@@H]12 [Compound 12, 6-Demethyl-6-[(2-thiazolylthio)methyl]mitomycin C] | 1.4 |  | 
7 | CO[C@@]12[C@H](COC(N)=O)C3=C(C(=O)C(CSc4nc5ccccc5s4)=C(N)C3=O)N1C[C@@H]1N[C@@H]12 [Compound 13, 6-Demethyl-6-[(2-benzothiazolylthio)methyl]mitomyc-in C] | 0.7 | 36 | > 50
8 | CO[C@@]12[C@H](COC(N)=O)C3=C(C(=O)C(CS[C@@H]4O[C@H](COC(C)=O)[C@@H](OC(C)=O)[C@H](OC(C)=O)[C@H]4OC(C)=O)=C(N)C3=O)N1C[C@@H]1N[C@@H]12 [Compound 16, 6-Demethyl-6-[[(2,3,4,6-tetra-O-acetyl-β-D-glucopyranosyl)thio]methyl]mitomycin C] | 1.1 | 24 | 38

Source: patent US5180825A, “Mitomycin derivatives” (Kyowa Hakko Kogyo Co., Ltd., priority 1990, dated 1993)
